Consider one molecule from BindingDB's records for patent US8592379 (Kyoto University, 2013).

The test concerns the target KiSS-1 receptor (Homo sapiens, UniProt Q969F8). Briefly: Binding Assay.

Sequence of KiSS-1 receptor (Q969F8 whole entry): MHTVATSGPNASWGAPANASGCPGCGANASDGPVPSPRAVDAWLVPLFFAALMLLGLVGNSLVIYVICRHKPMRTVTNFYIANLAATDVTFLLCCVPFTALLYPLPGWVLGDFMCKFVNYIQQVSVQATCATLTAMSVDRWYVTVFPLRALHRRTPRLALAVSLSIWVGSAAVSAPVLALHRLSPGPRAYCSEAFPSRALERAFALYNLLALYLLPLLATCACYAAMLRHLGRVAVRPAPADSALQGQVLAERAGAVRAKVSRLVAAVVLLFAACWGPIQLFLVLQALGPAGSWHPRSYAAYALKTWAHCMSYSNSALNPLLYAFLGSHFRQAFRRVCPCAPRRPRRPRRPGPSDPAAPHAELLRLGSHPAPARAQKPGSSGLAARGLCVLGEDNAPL

In general, IC50 refers to the concentration needed to halve the response being measured. Low values mean greater potency in that assay, high ones weaker potency in that assay. For `CNC[C@@H](O)CC(CC(C)C)C(C)=O` (stereo partly specified) [US8592379, 37], the IC50 is 0.24 nM.
